# Data from patent US20250195682A1, “IMPROVED CELL-TARGETING BINDING MOLECULE” (priority 2018, published 2025).
# Assays:
# [1] = pH dependent hydrolysis of the hydrazone bond (MALDI-TOF-MS); assay type: physicochemical; settings: HCl solution at pH 3
# [2] = test system: HeLa cells (EGFR+); assay: Cell viability (MTS) assay, HeLa cells; assay type: cell-based, human; settings: co-administered with SO1861 + dianthin-EGF, 500 nM PAMAM (native, thiolated, PEGylated) or chloroquine, 667 nM dendron
# Experimental: (§1) After treatment the cells were incubated for 72 hr at 37° C. before the cell viability was determined by a MTS-assay, performed according to the manufacturer's instruction (CellTiter 96@AQueous One Solution Cell Proliferation Assay, Promega). Briefly, the MTS solution was diluted 20× in DMEM without phenol red (PAN-Biotech GmbH) supplemented with 10% FBS (PAN-Biotech GmbH). The cells were washed once with 200 μL PBS per well, after which 100 μL diluted MTS solution was added per well. The plate was incubated for approximately 20-30 minutes at 37° C. Subsequently, the optical density at 492 nm was measured on a Thermo Scientific Multiskan FC plate reader (Thermo Scientific). For quantification the background signal of ‘medium only’ wells was subtracted from all other wells, before the ratio of untreated/treated cells was calculated, by dividing the background corrected signal of untreated wells over the background corrected signal of the treated wells.
# [3] = test system: SK-BR-3, JIMT-1, MDA-MB-468, A431, CaSki, HeLa, A2058; assay: Control treatments, relative cell viability on various cancer cell lines; assay type: cell-based, human; settings: toxins up to 100.000 pM
# Experimental: as §1
compound,measurement,setting,value
CC(=O)OC1C(C)OC(OC2C(C)OC(OC(=O)[C@]34CCC(C)(C)CC3C3=CCC5[C@@]6(C)CC[C@H](OC7OC(C(=O)O)C(O)C(OC8OCC(O)C(O)C8O)C7OC7OC(CO)C(O)C(O)C7O)[C@@](C)(/C=N/NC(=O)CCCCCN7C(=O)C=CC7=O)C6CC[C@@]5(C)[C@]3(C)C[C@H]4O)C(OC3OC(C)C(OC4OCC(O)C(OC5OC(CO)C(O)C(O)C5O)C4O)C(O)C3O)C2O)C(O)C1OC1OCC(O)C(O)C1O (stereo partly drawn) [SO1861-EMCH],hydrolysis of the hydrazone bond,[1],the hydrazone bond is responsive towards hydrolysis and gets cleaved
CCN(CC)CCCC(C)Nc1ccnc2cc(Cl)ccc12 (stereo not drawn) [chloroquine],effect on SO1861-mediated endosomal escape of the targeted toxin and cell killing,[2],inhibit the SO1861-mediated endosomal escape
saporin,influence on cell viability,[3],do not or hardly have any influence on cell viability
